Data on three compounds can be found in US20170071903A1, “USE OF ERIBULIN AND MTOR INHIBITORS AS COMBINATION THERAPY FOR THE TREATMENT OF CANCER” (Eisai R&D Management Co., Ltd., priority 2014, published 2017).

The test system of data set [1] is MX-1 human mammary tumor xenografts. The experiment in a line: Growth of subcutaneously-implanted MX-1 human mammary tumor xenografts in mice. A general note: A xenograft is tissue or cells of one species grown in another, often human tumour cells in immunodeficient mice.
Text: A total of 120 tumor bearing mice were divided into twelve groups of 10 mice. […] All treatments were initiated 10 days after the implantation of tumor xenografts.
Six-weeks-old female, athymic NCr-nu/nu mice were purchased from Charles River Laboratories (Wilmington, Mass.) and acclimated in the laboratories for 10 days prior to experimentation. The animals were housed in microisolator cages, five per cage with a 12-hour light/dark cycle. The animals received filtered Birmingham municipal water and sterilized Teklad Global 16% protein rodent diet (2016S, Harlan Laboratories, Inc.) ad libitum. No consumable enrichment was provided. Enrich-n'Nest paper rolls (the Andersons Lab Bedding Products, Maumee, Ohio) were provided in each cage as manipulanda. Cages were changed twice weekly. The animals were observed daily and clinical signs were noted.
Each mouse was implanted SC near the right flank with a 30-40 mg fragment of MX-1 human mammary tumor from an in vivo passage using a 13-gauge needle. The day of tumor fragments implantation was designated as Day 0. Individual tumors of 120 animals grew to 100-245 mg in weight (100-245 mm^3 in size) on the day of treatment initiation, Day 10 after tumor fragments implantation. Those animals selected with tumors in the proper size range were assigned to twelve treatment groups so that the mean and median tumor weights in all groups on the first day of treatment were as close to each other as possible (mean tumor weights ranged from 160 to 168 mg, median tumor weights were 153 or 162 mg).
The solution was allowed to stand for 2-3 minutes to make sure it was fully in solution. […] On each day of treatment, an aliquot was thawed at room temperature and diluted with saline to yield a concentration of 0.06 mg/mL in 2.5% DMSO/97.5% saline. Lower concentrations of 0.04 and 0.02 mg/mL were achieved by dilution of a portion of the 0.06 mg/mL solution with 2.5% DMSO/97.5% saline. Bottles with dosing solutions were stored at 4° C. between formulation and administration.
0.5% MC/0.2% T80 in WFI was formulated and the solution was stored at 4° C. […] A portion of the 4 mg/mL cloudy solution was diluted with 0.5% MC/0.2% T80 in WFI to 2 mg/mL. Bottles with dosing solutions were stored at 4° C. between formulation and administration.
The experiment consisted of a vehicles-treated control group and eleven drug-treated groups of 10 mice per group for a total of 120 mice on the first day of treatment. All treatments were initiated on Day 10. […] On the days when both compounds were administered, E7389 was administered to all combination groups first [−(0)]
Animals were observed once daily for mortality and morbidity. The SC tumors were measured and the animals were weighed twice weekly starting with the first day of treatment, Day 10 after tumor fragment implantation.
On data set [2], the source says: No consumable enrichment was provided. […] Cages were changed twice weekly.
All treatments were initiated on Day 10.

The subject of data set [3] is twenty-five cell line panel. Nature of the data set: Anti-proliferation assay (ATPLite, growth inhibition), single agent dose response. Type of data set: cell-based. To be noted: median across cell lines reaching >50% inhibition; 72 h; three-fold, ten-point dose titration. As to the method:
Cells are thawed from a liquid nitrogen preserved state. […] The calculation for synergy score is provided below. […] This formula is derived from the Growth Inhibition calculation used in the National Cancer Institute's NCI-60 high throughput screen. All single agent and combination data analysis are performed in growth inhibition. Eribulin had varying activity across a twenty-five cell line panel. Single agent activity was assessed using a three-fold, ten-point dose titration. Twenty-three cell lines were evaluated in 1536-well plate format. Two additional cell lines were evaluated in 384-well plate format.
In general terms: Cellular ATP, detected with luciferase, serves as a proxy for viable cell number.

Setting [4] is: E7389 0.2 mg/kg/injection IV Q4Dx4 (Group 4).
Setting [5] is: E7389 0.4 mg/kg/injection IV Q4Dx4 (Group 3).
[6] abbreviates: everolimus 20 mg/kg/dose PO Q1Dx16 (Group 6).
Setting [7] is: everolimus 40 mg/kg/dose PO Q1Dx16 (Group 5).

Structures can show the parent of a compound that is named as a salt. Where two headings read alike, the source gives them in different places. Bounds are passed on as bounds.

For the compound `C=C1C[C@@H]2CC[C@@]34C[C@H]5O[C@H]6[C@@H](O3)[C@H]3O[C@H](CC[C@@H]3O[C@H]6[C@H]5O4)CC(=O)C[C@@H]3[C@@H](OC)[C@@H](C[C@H](O)CN)O[C@H]3C[C@H]3O[C@@H](CC[C@@H]1O2)C[C@@H](C)C3=C` [E7389, II, 15:18,21:24,28-triepoxy-7,9-ethano-12,15-methano-9H,15H-furo[3,2-i]furo[2′,3′:5,6]pyrano[4,3-b][1,4]dioxacyclopentacosin-5(4H)-one, 2-[(2S)-3-amino-2-hydroxypropyl]hexacosahydro-3-methoxy-26-methyl-20,27-bis(methylene)-, (2R,3R,3aS,7R,8aS,9S,10aR,11S,12R,13aR,13bS,15S,18S,21S,24S,26R,28R,29aS)-methanesulfonate (salt)], the “T/C value on Day 34 (median tumor weight)” value in data set [1] (setting [4]) was found to be 51%; in data set [1] (setting [5]) it was 13%; in data set [1] (E7389 0.6 mg/kg/injection IV Q4Dx4 (Group 2)), 0%. Further, the “median tumor growth delay (T-C)” value in data set [1] (setting [4]) is on record as greater than 6.3 days; in data set [1] (setting [5]), 17.7 days; in data set [1] (E7389 0.6 mg/kg/injection IV Q4Dx4 (Group 2), time to four tumor mass doublings), greater than 33.8 days. Moreover, the “number of tumor-free survivors on day of study termination (Day 62)” value in data set [1] (E7389 0.6 mg/kg/injection (Group 2)) is on record as “five”. In addition, the “number of complete tumor regressions” value in data set [1] (E7389 0.6 mg/kg/injection (Group 2), out of ten animals) is on record as “six”. The “inhibition of the growth of the MX-1 mammary tumor xenografts” value in data set [1] (E7389 0.6, 0.4 and 0.2 mg/kg/injection IV) is reported as “very effective”. Also, in data set [2] (E7389 0.6, 0.4 and 0.2 mg/kg/injection IV Q4Dx4 (Groups 2-4)), the tolerability / deaths entry was “tolerated without treatment-related deaths”. Besides, the “maximum tolerated dose (MTD)” value in data set [2] (E7389 IV Q4Dx4, doses up to 0.6 mg/kg/injection) was “not reached”. In addition, in data set [2] (mouse, in vivo), the “dryness of the skin” value is recorded as “not noted”. Besides, the “mean body weight loss” value in data set [2] (mouse, in vivo, iv, 0.2 mg/kg) is “did not result in mean body weight loss”. The “maximum mean body weight loss” value in data set [2] (mouse, in vivo, iv, 0.4 mg/kg) was 1%; in data set [2] (mouse, in vivo, iv, 0.6 mg/kg) it was 1%.

Regarding `CO[C@H]1C[C@@H]2CC[C@@H](C)[C@@](O)(O2)C(=O)C(=O)N2CCCC[C@H]2C(=O)O[C@H]([C@H](C)C[C@@H]2CC[C@@H](OCCO)[C@H](OC)C2)CC(=O)[C@H](C)/C=C(\C)[C@@H](O)[C@@H](OC)C(=O)[C@H](C)C[C@H](C)/C=C/C=C/C=C/1C` [everolimus], the “T/C value on Day 34 (median tumor weight)” value stood at 74% in data set [1] (setting [6]) and 46% in data set [1] (setting [7]). Moreover, the “median tumor growth delay (T-C)” value in data set [1] (setting [6]) is recorded as 4.0 days; in data set [1] (setting [7]), 6.1 days. Besides, in data set [1] (everolimus 40 and 20 mg/kg/dose PO), the “inhibition of the growth of the MX-1 mammary tumor xenografts” value is “minimally effective”. Moreover, in data set [2] (mouse, in vivo, po), the “maximum tolerated dose (MTD)” value is reported as “not reached”.

As for `C=C1C[C@@H]2CC[C@@]34C[C@H]5O[C@H]6[C@@H](O3)[C@H]3O[C@H](CC[C@@H]3O[C@H]6[C@H]5O4)CC(=O)C[C@@H]3[C@@H](OC)[C@@H](C[C@H](O)CN)O[C@H]3C[C@H]3O[C@@H](CC[C@@H]1O2)C[C@@H](C)C3=C` [Eribulin], the GI50 in data set [3] came to 0.51 nM.

In general, GI50 refers to the concentration giving 50% growth inhibition.
